Experimental data taken from US7705118B2, “Methods for preparing internally constrained peptides and peptidomimetics” (New York University, priority 2004, dated 2010).

Tests used:
[1] = Circular dichroism of constrained peptide 3 and control peptide 1; assay type: physicochemical; settings: aqueous buffer and TFE solutions
Method: The structure of constrained peptide 3 was studied with circular dichroism (“CD”). CD studies on the constrained peptide 3 and the control peptide 1 in 30 mM phosphate buffer pH 7.0 were performed to obtain a quantitative measure of the helical content. […] The relative percent helicity of peptides can theoretically be measured by the mean residue ellipticity at 222 nm (Lyu et al., “Alpha-helix Stabilization by Natural and Unnatural Amino Acids with Alkyl Side Chains,” Proc. Nat'l Acad. Sci. 88:5317-5320 (1991), which is hereby incorporated by reference in its entirety), although these estimates are not typically accurate for short helices.
CD spectra were recorded on an AVIV 202SF CD spectrometer equipped with a temperature controller using 1 mm path length cells. The scan speed was set to 5 nm/min and spectra were averaged over 5 scans. Spectral baselines were obtained under analogous conditions as that for the samples. All spectra are baseline subtracted, converted to a uniform scale of molar ellipticity, and replotted. The helix content of each peptide was determined from the mean residue CD at 222 nm, [θ]222 (deg cm^2 dmol^−1) corrected for the number of amide bonds (Chin et al., Proc. Nat'l Acad. Sci. U.S.A., 99:15416-15421 (2002); Chen et al., Biochemistry, 11:4120-4131 (1972), which are hereby incorporated by reference in their entirety). […]

[2] = Circular dichroism of Bak BH3 peptides in 20% TFE/PBS; assay type: physicochemical; settings: 20% TFE in PBS, 50 μM, 25° C., Yang's method
Method: The α-helical conformation of constrained peptide 10a was determined by circular dichroism spectroscopy. […] The HBS α-helix 10a is roughly 46% helical as measured by Yang's method (Chen et al., Biochemistry, 11:4120-4131 (1972), which is hereby incorporated by reference in its entirety). […]
CD spectra were recorded on AVIV 202SF CD spectrometer equipped with a temperature controller using 1 mm length cells and a scan speed of 5 nm/min at 25° C. […] The helix content of each peptide was determined from the mean residue CD at 222 nm, [θ]222 (deg cm^2 dmol^−1) corrected for the number of amide bonds (Chen et al., Biochemistry 11:4120-4131 (1972), which is hereby incorporated by reference in its entirety). Percent helicity was calculated from ratio [θ]222/[θ]max, where [θ]max=−39500×[1−(2.57/n)]. The [θ]max for HBS α-helices is calculated to be −33155 for n=16 (number of amide bonds in the peptide).

Method for trypsin: At different time intervals, 100 μL of the above solution was taken out, quenched with 100 μL of 2% TFA aqueous solution, and then injected into reversed-phase HPLC to analyze the change in the area of the peptide peak compared to the area of internal control (tryptophan).

SMILES | CD spectrum [1] | proteolysis in the presence of trypsin (trypsin) | percent helicity [2]
COC(=O)[C@@H](NC(=O)[C@@H](NC(=O)[C@@H](NC(=O)[C@@H](NC(=O)[C@@H](NC(=O)[C@@H](NC(=O)[C@@H](NC(=O)[C@H](NCC=O)NC(C)=O)N[C@@H](C=O)CCC(=O)O)N[C@@H](C)C=O)N[C@@H](C)C=O)N[C@@H](C)C=O)N[C@@H](C)C=O)N[C@@H](C=O)CCC(=O)O)N[C@@H](C)C=O [peptide 1] | featureless spectrum |  | 
CC[C@H](C)[C@H](NC(=O)[C@H](C)NC(=O)[C@H](CC(C)C)NC(=O)[C@H](CCC(N)=O)NC(=O)[C@H](CCCNC(=N)N)NC(=O)CNC(=O)[C@@H](NC(=O)[C@H](CCC(N)=O)NC(=O)CNC(C)=O)C(C)C)C(=O)N[C@H](C(=O)NCC(=O)N[C@@H](CC(=O)O)C(=O)N[C@@H](CC(=O)O)C(=O)N[C@H](C(=O)N[C@@H](CC(N)=O)C(=O)N[C@@H](CCCNC(=N)N)C(N)=O)[C@@H](C)CC)[C@@H](C)CC [peptide 9a] |  | rapid proteolysis | ~26%
